We go through 24 molecules from patent US9539239B1, “Compositions and methods for treatment of neurodegenerative disease” (priority 2010, dated 2017).

The test system of experiment [1] is retinal ganglion cells (RGCs). The experiment is described as follows: RGC survival in primary retinal ganglion cell culture (high-content screening). The experiment is classed as cell-based, mouse and rat. The settings on record: potency relative to sunitinib; baseline culture with 2.5 μM forskolin. The procedure:
(§1) In this Example, certain compounds were administered to retinal ganglion cells (RGCs) in cell culture to determine the effects of the compounds on neuronal count and neurite growth.
We established a robust high-content screening system combining the immunopanning- or other immunobead-based purification of primary mouse and rat RGCs and automated fluorescence-based imaging analysis (see, e.g., U.S. Patent Publication No. 2007/0185069, incorporated herein by reference). To enhance the assay sensitivity, the culture condition is defined to support a baseline level of RGC viability (20˜60% surviving RGCs after three days in culture) and neurite growth by 2.5 μM forskolin. […]

Experiment [2] relates to retinal ganglion cells (RGCs). Put plainly: RGC neurite growth in primary retinal ganglion cell culture (high-content screening). The experiment is classed as cell-based, mouse and rat. Conditions: potency relative to sunitinib; baseline culture with 2.5 μM forskolin. The procedure: as §1
We established a robust high-content screening system combining the immunopanning- or other immunobead-based purification of primary mouse and rat RGCs and automated fluorescence-based imaging analysis (see, e.g., U.S. Patent Publication No. 2007/0185069, incorporated herein by reference). To enhance the assay sensitivity, the culture condition is defined to support a baseline level of RGC viability (20˜60% surviving RGCs after three days in culture) and neurite growth by 2.5 μM forskolin.
In addition, certain tested compounds stimulated RGC neurite growth.

The test system of experiment [3] is RGC. Put plainly: Effect of FLT3 ligand on RGC survival. The experiment is classed as cell-based.
For experiment [4] the following is noted: cited from earlier work.

For the molecule `Cc1[nH]c(/C=C2\C(=O)Nc3ccc([S+](C)[O-])cc32)c(C)c1C(=O)N1CCOCC1` (centres unmarked), the “RGC Survival Activity” value in experiment [1] is “** (approximately 40-80% as potent as sunitinib)”. Take `Cc1[nH]c(/C=C2\C(=O)Nc3ccc([S+](C)[O-])cc32)c(C)c1C(=O)N1CCN(C)CC1` (centres unmarked): the “RGC Survival Activity” value in experiment [1] is listed as “* (approximately 10-40% as potent as sunitinib)”. On to `C[S+]([O-])c1ccc2c(c1)/C(=C/c1cc3c([nH]1)CC(C)(C)CC3=O)C(=O)N2` (centres unmarked) [Example 2], for which, in experiment [1], the “RGC Survival Activity” value was “*** (at least approximately 80% as potent as sunitinib)”.

In the case of `C[S+]([O-])c1ccc2c(c1)/C(=C/c1cc3c([nH]1)CCCC3=O)C(=O)N2` (centres unmarked) [Example 3], in experiment [1], the “RGC Survival Activity” value was “*** (at least approximately 80% as potent as sunitinib)”. Regarding `Cc1c([S+](C)[O-])ccc2c1/C(=C/c1cc3c([nH]1)CCCC3)C(=O)N2` (centres unmarked) [Example 5], the “RGC Survival Activity” value in experiment [1] is listed as “* (approximately 10-40% as potent as sunitinib)”. Moreover, the “Neurite Promotion” value in experiment [2] is “** (approximately 40-80% as potent as sunitinib)”. In the case of `C[S+]([O-])c1ccc2c(c1)/C(=C/c1cc3c([nH]1)CCCC3)C(=O)N2` (centres unmarked) [Example 6], in experiment [1], the “RGC Survival Activity” value is reported as “*** (at least approximately 80% as potent as sunitinib)”. The same measure, in the same setting: in the case of `CC[S+]([O-])c1ccc2c(c1)/C(=C/c1cc3c([nH]1)CCCC3)C(=O)N2` (centres unmarked) [Example 7] it was “*** (at least approximately 80% as potent as sunitinib)”.

Regarding `Cc1c(/C=C2\C(=O)Nc3ccc(C(=O)N(C)C)cc32)[nH]c2c1CC(C)(C)CC2` [Example 8], the “RGC Survival Activity” value in experiment [1] is reported as “** (approximately 40-80% as potent as sunitinib)”.

`CON(C)C(=O)c1ccc2c(c1)/C(=C/c1[nH]c3c(c1C)C(=O)C(C)(C)CC3)C(=O)N2` [Example 9]: the “RGC Survival Activity” value in experiment [1] is recorded as “*** (at least approximately 80% as potent as sunitinib)”. For `CCN(C)C(=O)c1ccc2c(c1)/C(=C/c1[nH]c3c(c1C)C(=O)C(C)(C)CC3)C(=O)N2` [Example 10], the “RGC Survival Activity” value in experiment [1] is on record as “*** (at least approximately 80% as potent as sunitinib)”. In the case of `CCCCN(C)C(=O)c1ccc2c(c1)/C(=C/c1[nH]c3c(c1C)C(=O)C(C)(C)CC3)C(=O)N2` [Example 11], the “RGC Survival Activity” value in experiment [1] is reported as “** (approximately 40-80% as potent as sunitinib)”. For `Cc1c(/C=C2\C(=O)Nc3ccc(C(=O)N4CCCCCC4)cc32)[nH]c2c1C(=O)C(C)(C)CC2` [Example 12], the “RGC Survival Activity” value in experiment [1] is listed as “** (approximately 40-80% as potent as sunitinib)”. Turning to `Cc1c(/C=C2\C(=O)Nc3ccc(C(=O)N4CCCC4)cc32)[nH]c2c1C(=O)C(C)(C)CC2` [Example 13], the “RGC Survival Activity” value in experiment [1] is “*** (at least approximately 80% as potent as sunitinib)”. Turning to `CN(C)C(=O)c1ccc2c(c1)/C(=C/c1cc3c([nH]1)CCCC3=O)C(=O)N2` [Example 14], the “RGC Survival Activity” value in experiment [1] is on record as “*** (at least approximately 80% as potent as sunitinib)”. As for `CN(C)C(=O)c1ccc2c(c1)/C(=C/c1cc3c([nH]1)CC(C)(C)CC3=O)C(=O)N2` [Example 15], the “RGC Survival Activity” value in experiment [1] is “** (approximately 40-80% as potent as sunitinib)”. On the same count and under the same terms, the same measure for `Cc1c(/C=C2\C(=O)Nc3ccc(C(=O)N(C)C)cc32)[nH]c2c1C(=O)C(C)(C)CC2` [Example 16]: “*** (at least approximately 80% as potent as sunitinib)”. In the case of `CCN(CC)CCNC(=O)c1c(C)[nH]c(/C=C2\C(=O)Nc3ccc([S+](C)[O-])cc32)c1C` (centres unmarked) [Example 17], the “RGC Survival Activity” value in experiment [1] is listed as “*** (at least approximately 80% as potent as sunitinib)”. Also, the “Neurite Promotion” value in experiment [2] is reported as “*** (at least approximately 80% as potent as sunitinib)”. For the molecule `CCN(CC)CCNC(=O)c1c(C)[nH]c(/C=C2\C(=O)Nc3ccc([S+](C)[O-])cc32)c1C` (centres unmarked) [Example 18], the “RGC Survival Activity” value in experiment [1] is “*** (at least approximately 80% as potent as sunitinib)”. The “Neurite Promotion” value in experiment [2] is given as “*** (at least approximately 80% as potent as sunitinib)”. Regarding `CCN(CC)CCNC(=O)c1c(C)[nH]c(/C=C2\C(=O)Nc3ccc([S+]([O-])CC)cc32)c1C` (centres unmarked) [Example 19], the “RGC Survival Activity” value in experiment [1] was “*** (at least approximately 80% as potent as sunitinib)”. With `CCN(CC)CCNC(=O)c1c(C)[nH]c(/C=C2\C(=O)Nc3ccc(C(=O)N4CCCC4)cc32)c1C` [Example 23], the “RGC Survival Activity” value in experiment [1] is “*** (at least approximately 80% as potent as sunitinib)”. As for `CCN(CC)CCNC(=O)c1c(C)[nH]c(/C=C2\C(=O)Nc3ccc(C(=O)N(C)OC)cc32)c1C` [Example 24], the “RGC Survival Activity” value in experiment [1] is recorded as “*** (at least approximately 80% as potent as sunitinib)”. In the case of `Cc1[nH]c(/C=C2\C(=O)Nc3ccc(C(=O)N(C)C)cc32)c(C)c1C(=O)NCCN1CCCC1` [Example 25], in experiment [1], the “RGC Survival Activity” value was “*** (at least approximately 80% as potent as sunitinib)”.

As to `CCN(CC)CCNC(=O)c1c(C)[nH]c(/C=C2\C(=O)Nc3ccc(C(=O)N(C)C)cc32)c1C` [Example 26], in experiment [1], the “RGC Survival Activity” value is given as “*** (at least approximately 80% as potent as sunitinib)”.

B1: FLT3 ligand: RTK ligand; ligand of the receptor tyrosine kinase FLT3 (protein, UniProt P49771 27-235, looked up)
Fms-related tyrosine kinase 3 …: TQDCSFQHSPISSDFAVKIRELSDYLLQDYPVTVASNLQDEELCGGLWRLVLAQRWMERLKTVAGSKMQGLLERVNTEIHFVTKCAFQPPPSCLRFVQTNISRLLQETSEQLVALKPWITRQNFSRCLELQCQPDSSTLPPPWSPRPLEATAPTAPQPPLLLLLLLPVGLLLLAAAWCLHWQRTRRRTPRPGEQVPPVPSPQDLLLVEH
On to B1, for which the “reduction of RGC survival” value in experiment [3] (4 ng/ml (its EC50)) was “does not do so”; in experiment [3] (16 ng/ml, four times its EC50) it was 38.3%. Besides, in experiment [4], the EC50 is 4 ng/mL.

Broadly, the EC50 is the midpoint of the concentration-response curve.
